These results are taken from patent US20130030001A1 (priority 2008, published 2013).

Where a name gives a salt, the structure may show the parent alone.

For the first experiment, the target named is T1, human muscarinic acetylcholine M3 receptor (Homo sapiens, UniProt P20309).
T1 construct: expressed in transfected cells; host or cells: CHO-K1 (Chinese Hamster Ovary) cell membranes
T1 sequence (P20309 whole entry): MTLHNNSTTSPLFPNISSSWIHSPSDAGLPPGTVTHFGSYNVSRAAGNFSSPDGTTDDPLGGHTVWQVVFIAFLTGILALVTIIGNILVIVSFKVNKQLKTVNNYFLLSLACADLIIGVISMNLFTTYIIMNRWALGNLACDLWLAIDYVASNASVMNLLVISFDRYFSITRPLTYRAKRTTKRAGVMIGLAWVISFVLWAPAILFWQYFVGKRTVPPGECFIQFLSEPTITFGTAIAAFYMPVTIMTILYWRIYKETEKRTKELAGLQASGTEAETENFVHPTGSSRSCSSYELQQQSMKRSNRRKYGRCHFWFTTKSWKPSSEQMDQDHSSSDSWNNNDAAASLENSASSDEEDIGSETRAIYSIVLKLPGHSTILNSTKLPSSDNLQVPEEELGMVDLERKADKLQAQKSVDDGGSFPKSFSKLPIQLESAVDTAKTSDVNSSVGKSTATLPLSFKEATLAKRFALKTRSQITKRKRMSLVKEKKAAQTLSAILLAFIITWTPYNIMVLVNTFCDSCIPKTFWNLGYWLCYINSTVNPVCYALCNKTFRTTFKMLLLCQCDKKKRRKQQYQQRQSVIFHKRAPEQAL
Kind of experiment: biochemical. The format is binding. The following applies: M3 binding IC50.
As usually defined, the IC50 is the concentration that gives 50% inhibition. High values mean weaker potency, low ones greater potency. Consider `O=C(C[N+]12CCC(CC1)[C@@H](OC(=O)C1(c3ccccc3)CCCCCC1)C2)Nc1ncccc1F` [Example 53, (R)-1-[(3-Fluoro-pyridin-2-ylcarbamoyl)-methyl]-3-(1-phenyl-cycloheptanecarbonyloxy)-1-azonia-bicyclo[2.2.2]octane chloride], for which the IC50 fell in the range of 2 to 10 nM. Compound `Cc1ccccc1NC(=O)C[N+]12CCC(CC1)[C@@H](OC(=O)C1(c3ccccc3)CCCCCC1)C2` [Example 31, (R)-3-(1-Phenyl-cycloheptanecarbonyloxy)-1-(o-tolylcarbamoyl-methyl)-1-azonia-bicyclo[2.2.2]octane bromide] registered an IC50 of 2 to 10 nM.

The compound `Cc1ccc(NC(=O)C[N+]23CCC(CC2)[C@@H](OC(=O)C2(c4ccccc4)CCCCCC2)C3)nc1` [Example 18, (R)-1-[(5-Methyl-pyridin-2-ylcarbamoyl)-methyl]-3-(1-phenyl-cycloheptanecarbonyloxy)-1-azonia-bicyclo[2.2.2]octane chloride] came in with an IC50 below 2 nM. Still for that read-out and setting: to `N#Cc1ccc(NC(=O)C[N+]23CCC(CC2)[C@@H](OC(=O)C2(c4ccccc4)CCCCCC2)C3)nc1` [Example 51, (R)-1-[(5-Cyano-pyridin-2-ylcarbamoyl)-methyl]-3-(1-phenyl-cycloheptanecarbonyloxy)-1-azonia-bicyclo[2.2.2]octane chloride] belongs 2 to 10 nM. On the same count and under the same terms, to `Cc1cncc(NC(=O)C[N+]23CCC(CC2)[C@@H](OC(=O)C2(c4ccccc4)CCCCCC2)C3)n1` [Example 2, (R)-1-[(6-Methyl-pyrazin-2-ylcarbamoyl)-methyl]-3-(1-phenyl-cycloheptanecarbonyloxy)-1-azonia-bicyclo[2.2.2]octane bromide] belongs below 2 nM; to `O=C(C[N+]12CCC(CC1)[C@@H](OC(=O)C1(c3ccccc3)CCCCCC1)C2)Nc1cc(F)ccc1F` [Example 41, (R)-1-[(2,5-Difluoro-phenylcarbamoyl)-methyl]-3-(1-phenyl-cycloheptanecarbonyloxy)-1-azonia-bicyclo[2.2.2]octane bromide], 2 to 10 nM.

Take `Cc1cccc(NC(=O)C[N+]23CCC(CC2)[C@@H](OC(=O)C2(c4ccccc4)CCCCCC2)C3)n1` [Example 30, (R)-1-[(6-Methyl-pyridin-2-ylcarbamoyl)-methyl]-3-(1-phenyl-cycloheptanecarbonyloxy)-1-azonia-bicyclo[2.2.2]octane chloride]: the IC50 is below 2 nM. Still for that read-out and setting: for `O=C(C[N+]12CCC(CC1)[C@@H](OC(=O)C1(c3cccs3)CCCCCC1)C2)Nc1cccc(F)c1` [Example 8, (R)-1-[(3-Fluoro-phenylcarbamoyl)-methyl]-3-(1-thiophen-2-yl-cycloheptanecarbonyloxy)-1-azonia-bicyclo[2.2.2]octane bromide] the value was below 2 nM. On the same count and under the same terms, for `O=C(C[N+]12CCC(CC1)[C@@H](OC(=O)C1(c3ccccc3)CCCCCC1)C2)Nc1ccncn1` [Example 22, (R)-3-(1-Phenyl-cycloheptanecarbonyloxy)-1-(pyrimidin-4-ylcarbamoylmethyl)-1-azonia-bicyclo[2.2.2]octane chloride] the value was below 2 nM; for `O=C(NCC[N+]12CCC(CC1)[C@@H](OC(=O)C1(c3ccccc3)CCCCCC1)C2)c1ccccn1` [Example 60, (R)-3-(1-Phenyl-cycloheptanecarbonyloxy)-1-{2-[(pyridine-2-carbonyl)-amino]-ethyl}-1-azonia-bicyclo[2.2.2]octane bromide], below 2 nM; for `O=C(C[N+]12CCC(CC1)[C@@H](OC(=O)C1(c3ccccc3)CCCCCC1)C2)Nc1c(F)cccc1F` [Example 38, (R)-1-[(2,6-Difluoro-phenylcarbamoyl)-methyl]-3-(1-phenyl-cycloheptanecarbonyloxy)-1-azonia-bicyclo[2.2.2]octane bromide], below 2 nM. Still for that read-out and setting: for `O=C(C[N+]12CCC(CC1)[C@@H](OC(=O)C1(c3ccccc3)CCCCCC1)C2)Nc1ccncc1` [Example 16, (R)-3-(1-Phenyl-cycloheptanecarbonyloxy)-1-(pyridin-4-ylcarbamoylmethyl)-1-azonia-bicyclo[2.2.2]octane chloride] the value was below 2 nM; for `N#Cc1ccc(COCC[N+]23CCC(CC2)[C@@H](OC(=O)C2(c4ccccc4)CCCCCC2)C3)cc1` [Example 42, (R)-1-[2-(4-Cyano-benzyloxy)-ethyl]-3-(1-phenyl-cycloheptanecarbonyloxy)-1-azonia-bicyclo[2.2.2]octane bromide], 2 to 10 nM; for `O=C(O[C@H]1C[N+]2(CCCc3ccncc3)CCC1CC2)C1(c2ccccc2)CCCCCC1` [Example 61, (R)-3-(1-Phenyl-cycloheptanecarbonyloxy)-1-(3-pyridin-4-yl-propyl)-1-azonia-bicyclo[2.2.2]octane bromide], below 2 nM. The compound `O=C(C[N+]12CCC(CC1)[C@@H](OC(=O)C1(c3ccccc3)CCCCCC1)C2)Nc1cccc(C(F)(F)F)n1` [Example 43, (R)-3-(1-Phenyl-cycloheptanecarbonyloxy)-1-[(6-trifluoromethyl-pyridin-2-ylcarbamoyl)-methyl]-1-azonia-bicyclo[2.2.2]octane chloride] had an IC50 of 2 to 10 nM. Same read-out and setting: for `O=C(C[N+]12CCC(CC1)[C@@H](OC(=O)C1(c3ccccc3)CCCCCC1)C2)Nc1ccncc1F` [Example 54, (R)-1-[(3-Fluoro-pyridin-4-ylcarbamoyl)-methyl]-3-(1-phenyl-cycloheptanecarbonyloxy)-1-azonia-bicyclo[2.2.2]octane chloride] the value was below 2 nM; for `O=C(C[N+]12CCC(CC1)[C@@H](OC(=O)C1(c3ccccc3)CCCCCC1)C2)Nc1ncccn1` [Example 50, (R)-3-(1-Phenyl-cycloheptanecarbonyloxy)-1-(pyrimidin-2-ylcarbamoylmethyl)-1-azonia-bicyclo[2.2.2]octane chloride], below 2 nM; for `O=C(C[N+]12CCC(CC1)[C@@H](OC(=O)C1(c3cccs3)CCCCCC1)C2)Nc1cccnn1` [Example 5, (R)-1-(Pyridazin-3-ylcarbamoylmethyl)-3-(1-thiophen-2-yl-cycloheptanecarbonyloxy)-1-azonia-bicyclo[2.2.2]octane bromide], below 2 nM. Same read-out and setting: to `Cc1ccnc(NC(=O)C[N+]23CCC(CC2)[C@@H](OC(=O)C2(c4ccccc4)CCCCCC2)C3)c1` [Example 44, (R)-1-[(4-Methyl-pyridin-2-ylcarbamoyl)-methyl]-3-(1-phenyl-cycloheptanecarbonyloxy)-1-azonia-bicyclo[2.2.2]octane chloride] belongs 2 to 10 nM. Still for that read-out and setting: for `Cc1cnc(NC(=O)C[N+]23CCC(CC2)[C@@H](OC(=O)C2(c4cccs4)CCCCCC2)C3)cn1` [Example 9, (R)-1-[(5-Methyl-pyrazin-2-ylcarbamoyl)-methyl]-3-(1-thiophen-2-yl-cycloheptanecarbonyloxy)-1-azonia-bicyclo[2.2.2]octane bromide] the value was below 2 nM. In the case of `O=C(C[N+]12CCC(CC1)[C@@H](OC(=O)C1(c3cccs3)CCCCCC1)C2)Nc1noc2ccccc12` [Example 10, (R)-1-(Benzo[d]isoxazol-3-ylcarbamoylmethyl)-3-(1-thiophen-2-yl-cycloheptanecarbonyloxy)-1-azonia-bicyclo[2.2.2]octane chloride], the IC50 is below 2 nM. In the case of `O=C(C[N+]12CCC(CC1)[C@@H](OC(=O)C1(c3ccccc3)CCCCCC1)C2)Nc1ccc(C(F)(F)F)nn1` [Example 3, (R)-3-(1-Phenyl-cycloheptanecarbonyloxy)-1-[(6-trifluoromethyl-pyridazin-3-ylcarbamoyl)-methyl]-1-azonia-bicyclo[2.2.2]octane bromide], the concentration for half-maximal inhibition (IC50) fell in the range of 2 to 10 nM. The same measure, in the same setting: to `CN(C(=O)C[N+]12CCC(CC1)[C@@H](OC(=O)C1(c3ccccc3)CCCCCC1)C2)c1ccccc1` [Example 39, (R)-1-[(Methyl-phenyl-carbamoyl)-methyl]-3-(1-phenyl-cycloheptanecarbonyloxy)-1-azonia-bicyclo[2.2.2]octane formate] belongs 2 to 10 nM; to `O=C(O[C@H]1C[N+]2(CCOc3cccnc3)CCC1CC2)C1(c2ccccc2)CCCCCC1` [Example 29, (R)-3-(1-Phenyl-cycloheptanecarbonyloxy)-1-[2-(pyridin-3-yloxy)-ethyl]-1-azonia-bicyclo[2.2.2]octane formate], 2 to 10 nM; to `Cc1ccc(NC(=O)C[N+]23CCC(CC2)[C@@H](OC(=O)C2(c4ccccc4)CCCCCC2)C3)cc1` [Example 46, (R)-3-(1-Phenyl-cycloheptanecarbonyloxy)-1-(p-tolylcarbamoyl-methyl)-1-azonia-bicyclo[2.2.2]octane bromide], 2 to 10 nM. For `O=C(C[N+]12CCC(CC1)[C@@H](OC(=O)C1(c3ccccc3)CCCCCC1)C2)Nc1ncns1` [Example 56, (R)-3-(1-Phenyl-cycloheptanecarbonyloxy)-1-([1,2,4]thiadiazol-5-ylcarbamoylmethyl)-1-azonia-bicyclo[2.2.2]octane chloride], the IC50 lay in the range of 2 to 10 nM.

As for `O=C(C[N+]12CCC(CC1)[C@@H](OC(=O)C1(c3ccccc3)CCCCCC1)C2)Nc1ccnnc1` [Example 27, (R)-3-(1-phenyl-cycloheptanecarbonyloxy)-1-(pyridazin-4-ylcarbamoylmethyl)-1-azonia-bicyclo[2.2.2]octane formate], the IC50 fell in the range of 2 to 10 nM. The same measure, in the same setting: for `O=C(O[C@H]1C[N+]2(CCc3cnccn3)CCC1CC2)C1(c2ccccc2)CCCCCC1` [Example 32, (R)-3-(1-Phenyl-cycloheptanecarbonyloxy)-1-(2-pyrazin-2-yl-ethyl)-1-azonia-bicyclo[2.2.2]octane bromide] the value was 2 to 10 nM.

The compound `O=C(O[C@H]1C[N+]2(CCc3ccc4c(c3)CCO4)CCC1CC2)C1(c2ccccc2)CCCCCC1` [Example 25, (R)-1-[2-(2,3-Dihydro-benzofuran-5-yl)-ethyl]-3-(1-phenyl-cycloheptanecarbonyloxy)-1-azonia-bicyclo[2.2.2]octane formate] came in with an IC50 below 2 nM. Compound `Cc1cc(NC(=O)C[N+]23CCC(CC2)[C@@H](OC(=O)C2(c4cccs4)CCCCCC2)C3)on1` [Example 7, (R)-1-[(3-Methyl-isoxazol-5-ylcarbamoyl)-methyl]-3-(1-thiophen-2-yl-cycloheptanecarbonyloxy)-1-azonia-bicyclo[2.2.2]octane bromide] had an IC50 of 2 to 10 nM.

The same experiment, now with this note: pIC50.
As to `O=C(C[N+]12CCC(CC1)[C@@H](OC(=O)C1(c3cccs3)CCCCCC1)C2)Nc1cccnn1` [Example 5, (R)-1-(Pyridazin-3-ylcarbamoylmethyl)-3-(1-thiophen-2-yl-cycloheptanecarbonyloxy)-1-azonia-bicyclo[2.2.2]octane bromide], 0.398 nM corresponded to half-maximal inhibition (IC50). This counts as sub-nanomolar.
